Results: paper PMC10573254, “Development of Novel Class of Phenylpyrazolo[3,4-d]pyrimidine-Based Analogs with Potent Anticancer Activity and Multitarget Enzyme Inhibition Supported by Docking Studies” (International Journal of Molecular Sciences, 2023)
Where two headings read alike, the source gives them in different places.

Legend:
[1] = tested on: MCF-7, HCT116, and HePG-2; test: MTT assay against three malignant cell lines (summary); assay type: cell-based; details: Homo sapiens, read-out: IC50 cytotoxicity (range over cell lines)
Procedure: (§1) According to our design, the tested compounds are classified into four categories based on the length and the chemotype of the spacer (Figure 3). In the first category, we used monosubstituted hydrazone linker. […] The second category is represented by […] hydrazone linker.
(§2) The cytotoxic activity was assessed using the 3-(4,5-dimethylthiazol-2-yl)-2,5-diphenyl tetrazolium bromide (MTT) colorimetric assay, as reported previously. Doxorubicin was used as a reference standard, and DMSO was used as a negative control. Briefly, the designated cell lines were cultured at a concentration of 5 × 10^4 cell/well in 96-well plates. The cells were incubated for 24 h under optimum conditions. Following this, the designated molecules were introduced (in serial dilutions from 0 to 50 μg/mL), and the cells were incubated for an additional 24 h. Following this, the media were withdrawn, and 100 μL of fresh medium was added. Then, 10 µL of the 12 mM MTT stock solution was administered to each well. The plates were then incubated for 4 h. […] An 85-μL aliquot of the media was removed from the wells, and 50 µL of DMSO was added to each well and mixed thoroughly with the pipette and incubated at 37 °C for 10 min. Then, the optical density was measured at 590 nm with the microplate reader (Sunrise, TECAN, Inc., Morrisville, NC, USA).

[2] = tested on: HCT-116; test: MTT cytotoxicity assay, HCT-116; assay type: cell-based; details: Homo sapiens
Procedure: (§5) The cytotoxic activity was assessed using the 3-(4,5-dimethylthiazol-2-yl)-2,5-diphenyl tetrazolium bromide (MTT) colorimetric assay, as reported previously [62, 63]. […] Briefly, the designated cell lines were cultured at a concentration of 5 × 10^4 cell/well in 96-well plates. The cells were incubated for 24 h under optimum conditions. Following this, the designated molecules were introduced (in serial dilutions from 0 to 50 μg/mL), and the cells were incubated for an additional 24 h. Following this, the media were withdrawn, and 100 μL of fresh medium was added. Then, 10 µL of the 12 mM MTT stock solution was administered to each well. The plates were then incubated for 4 h. Then, the cells were exposed to different compounds at the desired concentrations (0.01, 0.1, 1, 10, and 100 µM) or to 1% dimethyl sulfoxide (DMSO) for 48 and 72 h. […] Then, the optical density was measured at 590 nm with the microplate reader (Sunrise, TECAN, Inc., Morrisville, NC, USA).

[3] = tested on: WI-38; test: MTT assay on normal cell line WI-38; assay type: cell-based; details: normal human diploid fibroblasts
Procedure: as §1, §2

[4] = tested on: HePG-2; test: MTT cytotoxicity assay, HePG-2; assay type: cell-based; details: Homo sapiens, HepG2
Procedure: as §2

[5] = target: EGFR^WT (Homo sapiens, UniProt P00533); test: In vitro EGFR enzyme inhibitory assay; assay type: biochemical; details: for EGFR %inh at conc 0.01: conc 0.01, unit not given; for EGFR %inh at conc 0.1: conc 0.1, unit not given; for EGFR %inh at conc 1: conc 1, unit not given; for EGFR %inh at conc 10: conc 10, unit not given
Chain of EGFR^WT (P00533 25-1210): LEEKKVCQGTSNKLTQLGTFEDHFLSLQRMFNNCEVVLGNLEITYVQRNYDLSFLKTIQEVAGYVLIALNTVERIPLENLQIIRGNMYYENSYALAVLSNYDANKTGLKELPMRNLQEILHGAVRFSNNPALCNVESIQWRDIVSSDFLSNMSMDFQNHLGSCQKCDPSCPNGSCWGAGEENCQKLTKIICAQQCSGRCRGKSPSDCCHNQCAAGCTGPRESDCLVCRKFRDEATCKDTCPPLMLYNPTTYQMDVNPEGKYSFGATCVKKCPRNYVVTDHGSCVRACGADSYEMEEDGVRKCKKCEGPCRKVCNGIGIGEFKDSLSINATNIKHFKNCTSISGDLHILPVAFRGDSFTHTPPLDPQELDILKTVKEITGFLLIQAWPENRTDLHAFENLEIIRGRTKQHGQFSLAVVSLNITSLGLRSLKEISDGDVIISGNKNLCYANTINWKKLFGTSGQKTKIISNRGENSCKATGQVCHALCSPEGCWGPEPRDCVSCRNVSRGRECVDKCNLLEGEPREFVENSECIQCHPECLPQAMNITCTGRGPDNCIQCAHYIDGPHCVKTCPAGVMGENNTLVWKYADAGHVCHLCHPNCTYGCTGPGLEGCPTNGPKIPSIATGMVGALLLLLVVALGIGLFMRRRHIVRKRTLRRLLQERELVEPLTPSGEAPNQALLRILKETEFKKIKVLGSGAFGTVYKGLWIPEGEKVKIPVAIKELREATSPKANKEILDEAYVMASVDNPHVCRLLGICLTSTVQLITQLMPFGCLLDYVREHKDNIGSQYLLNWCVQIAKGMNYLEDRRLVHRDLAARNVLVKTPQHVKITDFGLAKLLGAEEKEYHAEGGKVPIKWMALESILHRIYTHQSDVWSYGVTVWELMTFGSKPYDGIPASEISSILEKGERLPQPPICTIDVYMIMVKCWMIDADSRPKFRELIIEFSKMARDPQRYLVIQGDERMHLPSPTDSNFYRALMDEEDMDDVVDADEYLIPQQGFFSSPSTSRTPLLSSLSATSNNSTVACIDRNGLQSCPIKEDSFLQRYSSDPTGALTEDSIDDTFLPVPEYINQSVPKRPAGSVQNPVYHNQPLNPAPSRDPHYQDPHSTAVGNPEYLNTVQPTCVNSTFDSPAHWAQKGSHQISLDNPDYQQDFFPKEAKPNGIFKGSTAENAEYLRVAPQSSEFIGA

[6] = tested on: MCF-7; test: MTT cytotoxicity assay, MCF-7; assay type: cell-based; details: Homo sapiens, MCF7
Procedure: as §5

[7] = target: T1, Topo-II (Homo sapiens, UniProt Q02880); test: In vitro Topo II inhibitory assay; assay type: biochemical; details: for TOPO IiB %inh at conc 0.1: conc 0.1, unit not given; for TOPO IiB %inh at conc 1: conc 1, unit not given; for TOPO IiB %inh at conc 10: conc 10, unit not given; for TOPO IiB %inh at conc 100: conc 100, unit not given
T1 construct: purchased
Procedure: (§3) Curve fitting was performed using GraphPad Prism.
(§4) (1 picture or pasted object on this page, not shown here)

[8] = tested on: Topo-II; test: In vitro Topo II inhibitory assay; assay type: biochemical, Human; details: fold, EGFR^WT versus Topo-II
Procedure: as §3, §4

[9] = target: VEGFR-2 (Homo sapiens, UniProt P35968); test: In vitro VEGFR2 enzyme inhibitory assay; assay type: biochemical; details: for VEGFR2 %inh at conc 0.01: conc 0.01, unit not given; for VEGFR2 %inh at conc 0.1: conc 0.1, unit not given; for VEGFR2 %inh at conc 1: conc 1, unit not given; for VEGFR2 %inh at conc 10: conc 10, unit not given; for target selectivity index EGFR over VGFR-2: fold, EGFR^WT versus VGFR-2
Chain of VEGFR-2 (P35968 20-1356): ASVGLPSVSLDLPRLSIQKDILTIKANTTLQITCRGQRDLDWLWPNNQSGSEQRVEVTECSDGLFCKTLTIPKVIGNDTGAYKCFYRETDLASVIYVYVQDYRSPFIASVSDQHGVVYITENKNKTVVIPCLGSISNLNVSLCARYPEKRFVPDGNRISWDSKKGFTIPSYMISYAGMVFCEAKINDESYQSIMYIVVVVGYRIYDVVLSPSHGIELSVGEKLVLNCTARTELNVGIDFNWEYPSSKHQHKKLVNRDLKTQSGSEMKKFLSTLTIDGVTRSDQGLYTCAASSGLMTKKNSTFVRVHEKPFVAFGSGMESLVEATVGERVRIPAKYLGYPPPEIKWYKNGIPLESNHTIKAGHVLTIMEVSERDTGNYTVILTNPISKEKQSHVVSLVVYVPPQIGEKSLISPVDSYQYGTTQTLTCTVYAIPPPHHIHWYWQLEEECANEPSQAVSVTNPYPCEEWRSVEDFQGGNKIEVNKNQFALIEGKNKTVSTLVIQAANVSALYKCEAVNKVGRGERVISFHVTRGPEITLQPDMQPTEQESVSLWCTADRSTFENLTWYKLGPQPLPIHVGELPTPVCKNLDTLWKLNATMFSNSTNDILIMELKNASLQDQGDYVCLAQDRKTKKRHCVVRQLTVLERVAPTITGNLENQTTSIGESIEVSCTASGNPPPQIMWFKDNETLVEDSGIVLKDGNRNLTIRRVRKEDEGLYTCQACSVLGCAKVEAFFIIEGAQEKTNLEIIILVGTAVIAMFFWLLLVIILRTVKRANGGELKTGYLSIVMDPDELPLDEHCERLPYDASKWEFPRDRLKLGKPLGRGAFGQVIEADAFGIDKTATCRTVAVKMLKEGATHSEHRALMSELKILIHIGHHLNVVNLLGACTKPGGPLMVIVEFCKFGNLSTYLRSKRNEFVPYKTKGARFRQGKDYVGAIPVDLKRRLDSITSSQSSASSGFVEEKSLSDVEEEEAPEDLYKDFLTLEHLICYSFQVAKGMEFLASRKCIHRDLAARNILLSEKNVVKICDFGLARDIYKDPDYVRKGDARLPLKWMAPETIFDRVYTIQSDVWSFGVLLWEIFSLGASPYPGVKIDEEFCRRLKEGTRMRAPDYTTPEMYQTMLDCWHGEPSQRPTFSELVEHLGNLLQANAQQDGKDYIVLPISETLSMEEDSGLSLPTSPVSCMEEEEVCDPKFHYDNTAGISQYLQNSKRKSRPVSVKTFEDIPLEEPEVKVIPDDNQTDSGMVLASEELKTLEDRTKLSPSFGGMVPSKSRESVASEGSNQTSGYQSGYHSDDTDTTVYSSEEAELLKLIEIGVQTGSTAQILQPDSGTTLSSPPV
Procedure: as §3, §4

[10] = target: EGFR^T790M (Homo sapiens, UniProt P00533, T790M); test: In vitro EGFR T790M kinase inhibitory assay; details: for EGFR T790M %inh at conc 0.01: conc 0.01 (conc.ng/ml); for EGFR T790M %inh at conc 0.1: conc 0.1 (conc.ng/ml); for EGFR T790M %inh at conc 1: conc 1 (conc.ng/ml); for EGFR T790M %inh at conc 10: conc 10 (conc.ng/ml)
Chain of EGFR^T790M (P00533 25-1210 T790M): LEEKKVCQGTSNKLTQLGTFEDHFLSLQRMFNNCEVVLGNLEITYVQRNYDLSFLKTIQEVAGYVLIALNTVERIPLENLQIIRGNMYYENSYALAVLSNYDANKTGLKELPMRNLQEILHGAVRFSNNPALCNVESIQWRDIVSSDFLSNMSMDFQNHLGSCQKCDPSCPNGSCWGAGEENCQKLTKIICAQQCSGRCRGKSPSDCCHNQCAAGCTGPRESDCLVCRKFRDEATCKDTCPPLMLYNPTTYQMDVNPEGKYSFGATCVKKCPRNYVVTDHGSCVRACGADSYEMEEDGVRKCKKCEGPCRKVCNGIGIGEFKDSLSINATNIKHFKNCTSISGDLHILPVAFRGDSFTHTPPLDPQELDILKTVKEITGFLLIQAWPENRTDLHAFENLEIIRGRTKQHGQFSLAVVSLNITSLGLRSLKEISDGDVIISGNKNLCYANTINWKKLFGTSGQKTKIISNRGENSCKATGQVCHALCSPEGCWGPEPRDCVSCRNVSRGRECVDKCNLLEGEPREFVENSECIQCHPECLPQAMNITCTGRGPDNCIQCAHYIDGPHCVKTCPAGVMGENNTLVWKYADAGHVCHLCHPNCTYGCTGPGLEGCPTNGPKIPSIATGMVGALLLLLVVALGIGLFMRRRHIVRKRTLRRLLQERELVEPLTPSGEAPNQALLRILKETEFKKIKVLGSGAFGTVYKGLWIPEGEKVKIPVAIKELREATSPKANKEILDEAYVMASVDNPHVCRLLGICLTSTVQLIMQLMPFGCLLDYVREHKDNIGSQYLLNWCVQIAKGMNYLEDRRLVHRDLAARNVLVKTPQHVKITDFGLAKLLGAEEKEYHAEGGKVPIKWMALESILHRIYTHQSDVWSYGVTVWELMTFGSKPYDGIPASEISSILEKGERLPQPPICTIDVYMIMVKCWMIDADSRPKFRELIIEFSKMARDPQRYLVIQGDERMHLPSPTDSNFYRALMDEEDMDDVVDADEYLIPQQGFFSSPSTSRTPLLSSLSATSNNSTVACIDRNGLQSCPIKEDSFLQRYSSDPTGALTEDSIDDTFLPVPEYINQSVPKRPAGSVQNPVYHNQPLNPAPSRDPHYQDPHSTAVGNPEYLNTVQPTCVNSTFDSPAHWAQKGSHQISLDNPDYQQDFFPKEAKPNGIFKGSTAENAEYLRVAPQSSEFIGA
Procedure: The assays were conducted in Vacsera (Giza, Egypt). Curve fitting was performed using GraphPad Prism. Data are represented as means ± SD from three independent experiments.
Assay : EGFR-T490M kinase assay
Reader : Tecan-spark reader
Kit used : BPS bioscience EGFR assay kit.

[11] = tested on: MCF-7 cells; test: Annexin V-FITC/PI apoptosis assay; assay type: cell-based, human; details: MCF-7, 3.81 μM
Procedure: We used annexin V-binding studies via flow cytometer to confirm the apoptosis induction by our compound. The apoptotic nature of 5i against MCF-7 cells was tested via flow cytometry detection after double-staining with Annexin V-FITC and propidium iodide (PI).
Annexin V-FITC apoptosis assay was conducted utilizing the Annexin V-FITC/PI double staining detection kit (BD Pharmingen, San Diego, CA, USA), as described elsewhere.

[12] = tested on: MCF-7 cells; test: Cell cycle analysis (propidium iodide flow cytometry); assay type: cell-based, human; details: MCF-7, 3.81 μM for 24 h (text: 1 μM)
[13] = HCT-116, read-out: IC50 HCT-116, MTT, colon cancer cells
[14] = HCT-116, 24 h incubation, read-out: IC50 HCT116 24 h
[15] = HCT-116, 48 h incubation, read-out: IC50 HCT116 48 h
[16] = HCT-116, 72 h incubation, read-out: IC50 HCT116 72 h
[17] = 24 h incubation, read-out: IC50 HePG-2 24 h
[18] = 48 h incubation, read-out: IC50 HePG-2 48 h
[19] = 72 h incubation, read-out: IC50 HePG-2 72 h
[20] = MTT, liver cancer cells, read-out: IC50 HePG-2
[21] = supplement lab report, read-out: EGFR IC50 (lab report) (converted)
[22] = 24 h incubation, read-out: IC50 MCF-7 24 h
[23] = 48 h incubation, read-out: IC50 MCF-7 48 h
[24] = 72 h incubation, read-out: IC50 MCF-7 72 h
[25] = MTT, breast cancer cells, read-out: IC50 MCF-7
[26] = supplement lab report, Human DNA Topoisomerase 2B Kit, read-out: TOP2a IC50 (lab report) (converted)
[27] = supplement lab report, read-out: VEGFR2 IC50 (lab report) (converted)

Cc1nc(NNC(=S)Nc2ccccc2)c2cnn(-c3ccccc3)c2n1 [Compound 9e, 2-(6-Methyl-1-phenyl-1H-pyrazolo[3,4-d]pyrimidin-4-yl)-N-phenylhydrazinecarbothioamide]
IC50 [1]: 3 to 10 µM | IC50 [2, 13]: 6.87 ± 0.5 µM | IC50 [2, 14]: 6.87 ± 0.5 µM | IC50 [2, 15]: 6.77 ± 0.4 µM | IC50 [2, 16]: 5.55 ± 0.4 µM | IC50 ([3]; Homo sapiens, WI-38, MTT): > 35 µM | IC50 ([3]; MTT): 66 ± 0.23 µM | IC50 [4, 17]: 7.8 ± 0.4 µM | IC50 [4, 18]: 8.28 ± 0.8 µM | IC50 [4, 19]: 5.93 ± 0.5 µM | IC50 [4, 20]: 7.8 ± 0.4 µM | EGFR %inh at conc 0.01 [5]: 20% | EGFR %inh at conc 0.1 [5]: 42% | EGFR %inh at conc 1 [5]: 58% | EGFR %inh at conc 10 [5]: 83% | IC50 ([5]; read-out: IC50 EGFR^WT): 770 ± 18 nM | IC50 [5, 21]: 770 nM | IC50 [6, 22]: 8.99 ± 0.5 µM | IC50 [6, 23]: 8.16 ± 0.8 µM | IC50 [6, 24]: 7.45 ± 0.7 µM | IC50 [6, 25]: 8.99 ± 0.5 µM | TOPO IiB %inh at conc 0.1 [7]: 4% | TOPO IiB %inh at conc 1 [7]: 16% | TOPO IiB %inh at conc 10 [7]: 34% | TOPO IiB %inh at conc 100 [7]: 65% | IC50 ([7]; read-out: IC50 Topo-II): 24.6 ± 0.54 µM | IC50 [7, 26]: 24.6 µM | target selectivity index EGFR over Topo-II [8]: 31 | melting point: 281 to 282 °C | VEGFR2 %inh at conc 0.01 [9]: 14% | VEGFR2 %inh at conc 0.1 [9]: 26% | VEGFR2 %inh at conc 1 [9]: 46% | VEGFR2 %inh at conc 10 [9]: 72% | target selectivity index EGFR over VGFR-2 [9]: 21 | IC50 ([9]; read-out: IC50 VGFR2): 16.2 ± 0.36 µM | IC50 [9, 27]: 16.2 µM

Cc1nc(NN=Cc2ccc(O)cc2)c2cnn(-c3ccccc3)c2n1 [Compound 5b, 4-((2-(6-Methyl-1-phenyl-1H-pyrazolo[3,4-d]pyrimidin-4-yl)hydrazineylidene)methyl)phenol]
IC50 [1]: 3 to 10 µM | IC50 [2, 13]: 5.65 ± 0.3 µM | IC50 [2, 14]: 5.65 ± 0.3 µM | IC50 [2, 15]: 9.82 ± 0.9 µM | IC50 [2, 16]: 4.09 ± 0.3 µM | IC50 ([3]; Homo sapiens, WI-38, MTT): > 35 µM | IC50 ([3]; MTT): 35 ± 0.3 µM | IC50 [4, 17]: 9.12 ± 0.7 µM | IC50 [4, 18]: 7.6 ± 0.7 µM | IC50 [4, 19]: 5.16 ± 0.4 µM | IC50 [4, 20]: 9.12 ± 0.7 µM | EGFR %inh at conc 0.01 [5]: 28% | EGFR %inh at conc 0.1 [5]: 46% | EGFR %inh at conc 1 [5]: 71% | EGFR %inh at conc 10 [5]: 87% | IC50 [5, 21]: 366 nM | IC50 [6, 22]: 10.5 ± 0.7 µM | IC50 [6, 23]: 9.82 ± 0.9 µM | IC50 [6, 24]: 5.16 ± 0.4 µM | IC50 [6, 25]: 10.5 ± 0.7 µM | TOPO IiB %inh at conc 0.1 [7]: 6.7% | TOPO IiB %inh at conc 1 [7]: 12% | TOPO IiB %inh at conc 10 [7]: 31% | TOPO IiB %inh at conc 100 [7]: 66% | IC50 ([7]; read-out: IC50 Topo-II): 108 ± 2.2 µM | IC50 [7, 26]: 108 µM | melting point: 162 to 164 °C | IC50 [10]: 1930 ± 80 nM | EGFR T790M %inh at conc 0.01 [10]: 37% | EGFR T790M %inh at conc 0.1 [10]: 54% | EGFR T790M %inh at conc 1 [10]: 77% | EGFR T790M %inh at conc 10 [10]: 87% | VEGFR2 %inh at conc 0.01 [9]: 13% | VEGFR2 %inh at conc 0.1 [9]: 25% | VEGFR2 %inh at conc 1 [9]: 50% | VEGFR2 %inh at conc 10 [9]: 70% | target selectivity index EGFR over VGFR-2 [9]: 20 | IC50 ([9]; read-out: IC50 VGFR2): 15.7 ± 0.32 µM | IC50 [9, 27]: 15.7 µM

CC(=NNc1nc(C)nc2c1cnn2-c1ccccc1)c1ccccc1 [Compound 5i, 6-Methyl-1-phenyl-4-(2-(1-phenylethylidene)hydrazinyl)-1H-pyrazolo[3,4-d]pyrimidine]
IC50 [1]: 3 to 10 µM | IC50 [2, 13]: 4.38 ± 0.2 µM | IC50 [2, 14]: 4.38 ± 0.2 µM | IC50 [2, 15]: 4.01 ± 0.3 µM | IC50 [2, 16]: 2.76 ± 0.3 µM | Apoptosis Total ([11]; 24 h): 36.06% | Necrosis ([11]; 24 h): 4.33% | Apoptosis Early ([11]; 24 h (text: 48 h)): 12.62% | Apoptosis Late ([11]; 24 h (text: 48 h)): 19.11% | IC50 [4, 17]: 6.38 ± 0.1 µM | IC50 [4, 18]: 3.34 ± 0.2 µM | IC50 [4, 19]: 2.42 ± 0.2 µM | IC50 [4, 20]: 6.38 ± 0.1 µM | DNA content %G0-G1 [12]: 49.63% | DNA content %Pre-G1 [12]: 36.06% | DNA content %S [12]: 43.12% | EGFR %inh at conc 0.01 [5]: 36% | EGFR %inh at conc 0.1 [5]: 52% | EGFR %inh at conc 1 [5]: 73% | EGFR %inh at conc 10 [5]: 88% | IC50 [5, 21]: 187 nM | IC50 [6, 22]: 3.81 ± 0.3 µM | IC50 [6, 23]: 3.34 ± 0.2 µM | IC50 [6, 24]: 1.24 ± 0.3 µM | IC50 [6, 25]: 3.81 ± 0.3 µM | TOPO IiB %inh at conc 0.1 [7]: 13% | TOPO IiB %inh at conc 1 [7]: 27% | TOPO IiB %inh at conc 10 [7]: 51% | TOPO IiB %inh at conc 100 [7]: 74% | IC50 ([7]; read-out: IC50 Topo-II): 24.7 ± 0.51 µM | IC50 [7, 26]: 24.7 µM | target selectivity index EGFR over Topo-II [8]: 66 | melting point: 245 to 247 °C | IC50 [10]: 560 ± 40 nM | EGFR T790M %inh at conc 0.01 [10]: 37% | EGFR T790M %inh at conc 0.1 [10]: 50% | EGFR T790M %inh at conc 1 [10]: 76% | EGFR T790M %inh at conc 10 [10]: 89% | VEGFR2 %inh at conc 0.01 [9]: 7.5% | VEGFR2 %inh at conc 0.1 [9]: 19% | VEGFR2 %inh at conc 1 [9]: 58% | VEGFR2 %inh at conc 10 [9]: 84% | target selectivity index EGFR over VGFR-2 [9]: 20 | IC50 ([9]; read-out: IC50 VGFR2): 7.6 ± 0.15 µM | IC50 [9, 27]: 7.58 µM
